± gives the expanded uncertainty stated by the source.
Settings: 101.3 kPa, Liquid, Vibrating tube method

CCOC(=O)C(=O)OCC [diethyl ethanedioate]
Settings | mass density [kg/m3]
278.15 K | 1095.94 ± 0.31
288.14 K | 1084.24 ± 0.3
298.15 K | 1072.53 ± 0.29
313.15 K | 1054.92 ± 0.27
328.15 K | 1037.26 ± 0.26
338.15 K | 1025.42 ± 0.25
348.15 K | 1013.53 ± 0.24
358.15 K | 1001.6 ± 0.23
